Patent US6096874A (Board of Regents, the University of Texas System, priority 1995, dated 2000)
Read-outs that look alike come from different tables or passages of the source.

Legend:
MCF7 cells = assay: MCF7 breast tumor cell growth inhibition, 72 h, MTT tetrazolium dye assay; type: cell-based, human; details: for Potency against MCF7 compared with tamoxifen / Tumor cell inhibition (in words): 72 h; for RP (relative potency): tamoxifen = 100
Method: The MCF7 cell line is a human tumor cell line. This cell line was cultured in MEM (Eagles) media in a 5% CO^2 atmosphere with 10% fetal calf serum that had been washed twice with dextran coated charcoal to reduce endogenous estrogen levels. The media was supplemented with 1 mM sodium pyruvate and 100 μm non-essential amino acids. The cell line was screened routinely for myoplasma contamination using the GenProbe kit (Fisher). Cells were trypsinized and plated at a density of 5,000 cells/well in 96 well microtiter plates and allowed to attach and recover for 24 hours.
The media was removed by aspiration and replaced with filter sterilized drug (concentration from 10^-4 M to 10^-5 M) in media. The cells were incubated for 72 hours and then stained using the mTT tetrazolium dye assay of Mosmann^36 except that after the media was removed, the blue formazan product was solubilized in 50 μl/well DMSO.

estrogen receptor [1] = biological target: T1, estrogen receptor (Sus scrofa, UniProt Q29040); details: for RBA (IC50 ratio between tamoxifen and competitor): Table 7, tamoxifen printed as 1; for Enhancement of estrogen receptor binding affinity: compared to tamoxifen
T1 sequence (Q29040 1-595): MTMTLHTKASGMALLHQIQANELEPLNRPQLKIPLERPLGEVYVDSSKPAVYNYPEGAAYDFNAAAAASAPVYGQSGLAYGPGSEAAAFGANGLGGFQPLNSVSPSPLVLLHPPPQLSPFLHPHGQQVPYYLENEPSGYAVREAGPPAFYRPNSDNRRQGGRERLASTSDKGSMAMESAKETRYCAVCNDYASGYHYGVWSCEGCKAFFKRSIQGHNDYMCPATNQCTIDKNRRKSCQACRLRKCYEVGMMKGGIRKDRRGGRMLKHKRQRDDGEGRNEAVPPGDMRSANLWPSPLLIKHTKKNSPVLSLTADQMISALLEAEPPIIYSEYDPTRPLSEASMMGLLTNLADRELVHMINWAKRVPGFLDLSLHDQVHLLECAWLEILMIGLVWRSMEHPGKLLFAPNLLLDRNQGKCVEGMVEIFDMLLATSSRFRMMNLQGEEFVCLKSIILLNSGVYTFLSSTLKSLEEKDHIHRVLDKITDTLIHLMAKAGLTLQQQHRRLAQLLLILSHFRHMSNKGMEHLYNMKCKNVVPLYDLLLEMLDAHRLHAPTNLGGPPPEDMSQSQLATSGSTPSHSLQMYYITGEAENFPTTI
Method: (§1) A previously reported procedure was modified by the inventors and used for this purpose.^10,11 TEA buffer was used by the Inventors for tissue preparation.
(§2) Briefly, uteri (90 gm) were obtained from immature domestic swine (15 kg) was homogenized in Tris buffer (10 mM, pH 7.4) (1 uterus/180 ml), which contained EDTA (1.5 mM) and sodium Azide (3 mM). The homogenate was centrifuged at 100,000 g for 1 hour at 4° C. Uteri cytosol (contains 2% of protein from corresponding uterus tissue) were then pretreated with dextran-coated charcoal as described.^10 Protein concentrations were determined according to the method of Lowry et al.^12
(§3) *The relative binding affinity (RBA) for the pig uteri estrogen receptor

[2] = Acute/immediate toxicity following i.v. injection in BALB/c mice; details: for MTD / Maximum dose tolerated: mouse, in vivo, iv; for Mice died: 20 mg/kg i.v.
Method: Acute toxicity studies were performed in BALB/c female mice with doses tested at 20, 50 and 200 mg/kg (i.v., n=5 mice per dose).

[3] = compared to tamoxifen; cited from earlier work
estrogen receptor [4] = biological target: T2, estrogen receptor (Homo sapiens, UniProt P03372); details: cited from earlier work; for Estrogen receptor binding / detection potency (in words): compared to tamoxifen
T2 sequence (P03372 1-595): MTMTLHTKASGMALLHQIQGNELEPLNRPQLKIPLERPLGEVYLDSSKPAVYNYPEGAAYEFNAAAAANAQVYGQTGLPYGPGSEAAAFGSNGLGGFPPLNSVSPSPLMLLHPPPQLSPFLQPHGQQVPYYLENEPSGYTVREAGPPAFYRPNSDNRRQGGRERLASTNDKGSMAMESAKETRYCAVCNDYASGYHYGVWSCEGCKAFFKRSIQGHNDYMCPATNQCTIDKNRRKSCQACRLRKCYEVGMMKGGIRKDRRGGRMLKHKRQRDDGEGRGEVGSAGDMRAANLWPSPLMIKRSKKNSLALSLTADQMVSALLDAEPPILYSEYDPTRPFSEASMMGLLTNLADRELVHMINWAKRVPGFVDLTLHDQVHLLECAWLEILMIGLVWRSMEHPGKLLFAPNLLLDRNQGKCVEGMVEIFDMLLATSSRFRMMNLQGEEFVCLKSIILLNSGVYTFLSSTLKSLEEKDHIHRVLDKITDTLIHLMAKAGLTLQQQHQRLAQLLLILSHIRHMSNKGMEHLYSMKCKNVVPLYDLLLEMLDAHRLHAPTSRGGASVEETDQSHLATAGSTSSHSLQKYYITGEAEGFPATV

in vivo = assay: in vivo; design: species or system rat; details: compared with DTPA-Tamoxifen and DTPA-Vitamin A conjugates
Method: In animal tissue distribution studies, each rate was given 8.9 μCi (0.15 ml) tracer intravenously. The tumor-bearing rats were killed at 1, 3, 6 and 24 h. […] The amount of DES given should occupy tumor estrogen receptor sites. The methods for inducing tumors in rats was as described by those of skill in the art (radiology). […]
Female Fisher 344 rats (250-275 g) (Harlan, Inc., Indianapolis, Ind.) were inoculated with mammary tumor cells using the 13762 tumor cell line (s.c. 10^5 cells/rat). After 14 days, a tumor size of 1-2 cm was observed. For ^131 I-ITX studies, five groups of rats (N=3/group) were anesthetized with ketamine (10-15 mg/rat). The trans ^131 I-ITX was given to four of the five groups (8.9 μCi/rat, i.v.) and biodistribution was studied at 1, 3, 6 and 24 h intervals. In blocking studies, the fifth group of rats was given diethylstilbestrol (DES) (1.2 mg/rat) for 1 h, followed by 8.9 μCi of ^131 I-ITX; biodistribution was studied 6 h later. The tissues were collected at different time intervals. The tissues were weighted and counted for radioactivity. The percent of injected dose per gram of tissue weight was calculated. […]

estrogen receptor [5] = biological target: T1, estrogen receptor; assay: biochemical
Method: as §1, §2, §3

[6] = In vivo tissue uptake in rat (% injected dose per organ, n=5)

CCN(CC)CCOc1ccc(/C(=C(\CCCF)c2ccccc2)c2ccccc2)cc1 [VI (Cis), N,N-diethyl-fluoromethyltamoxifen]
Potency against MCF7 compared with tamoxifen (MCF7 cells): 3 fold
Tumor cell inhibition (in words) (MCF7 cells): more potent than the trans isomers

CCN(CC)CCOc1ccc(C(=C(CCCBr)c2ccccc2)c2ccccc2)cc1 [Compound XI, 1-[4-(2-Diethylaminoethoxy)phenyl]-1,2-diphenyl-5-bromo-1-entene]
Estrogen receptor binding (in words) (estrogen receptor [1]; listed as Bromomethyl tamoxifen): binds to estrogen receptors with greater affinity than the other halogenated tamoxifen analogs tested
Estrogen receptor binding (in words) (estrogen receptor [1]; listed as bromomethyl-Tx): bind to estrogen receptors greater than other halogenated tamoxifens tested
Potency against MCF7 compared with tamoxifen (MCF7 cells): ~25 fold

CCN(CC)CCOc1ccc(/C(=C(/CCCBr)c2ccccc2)c2ccccc2)cc1 [trans-BTX]
MTD [2]: 50 mg/kg

CCN(CC)CCOc1ccc(/C(=C(/CCCO)c2ccccc2)c2ccccc2)cc1 [III (trans), N,N-diethyl-hydroxymethyltamoxifen]
RBA (relative binding affinity) (estrogen receptor [1]; tamoxifen = 100): 400
RP (relative potency) (MCF7 cells): 50

CC/C(=C(\c1ccc(OC)cc1)c1ccc(OCCN(C)C)cc1)c1ccccc1 [4-methoxy phenyl derivative]
Anti-estrogenic / in vivo activity (in words) [3]: about the same as native tamoxifen

CC/C(=C(\c1ccc(Cl)cc1)c1ccc(OCCN(C)C)cc1)c1ccccc1 [Compound 4-chloro]
Estrogen receptor binding / detection potency (in words) (estrogen receptor [4]): approximately equal activity for estrogen receptor binding affinity
Anti-estrogenic / in vivo activity (in words) [3]: lower anti-estrogenic activity than tamoxifen

Fluorotamoxifen [(VII) FTX (Cis)]
RP (relative potency) (MCF7 cells): 224

CCN(CC)CCOc1ccc(/C(=C(/CCCI)c2ccccc2)c2ccccc2)cc1 [trans-ITX, iodotamoxifen]
Mice died [2]: 3/4
Mice died ([2]; listed as trans ITX): 3 out of 4
Toxicity (in words) ([2]; i.v.): lethal effects of transITX were immediate
MTD [2]: 8 mg/kg

CC/C(=C(\c1ccc(O)cc1)c1ccc(OCCN(C)C)cc1)c1ccccc1 [4-hydroxytamoxifen]
Anti-estrogenic / in vivo activity (in words) [3]: less effective than tamoxifen in vivo

NCCc1ccc(NC(=O)CN(CCN(CCN(CC(=O)O)CC(=O)O)CC(=O)O)CC(=O)O)cc1 [DTPA, DTPAp-(amino ethyl) anilide, reference compound]
Blood clearance and tumor-to-tissue uptake ratios (in words) (in vivo): faster blood clearance and less tumor-to-tissue uptake ratios

CCN(CC)CCOc1ccc(/C(=C(\CCCCl)c2ccccc2)c2ccccc2)cc1 [cis-CITX, chlorotamoxifen]
MTD [2]: 50 mg/kg

CCN(CC)CCOc1ccc(/C(=C(/CCCN=[N+]=[N-])c2ccccc2)c2ccccc2)cc1 [TX-N3 (trans), Tamoxifen Azide]
IC50 (estrogen receptor [5]): 38 µM
Ki (estrogen receptor [5]): 18.7 µM
RBA (relative binding affinity) (estrogen receptor [1]): 80

CCN(CC)CCOc1ccc(/C(=C(/CCCBr)c2ccccc2)c2ccccc2)cc1 [(XI) BrM (trans), N,N-diethyl-bromomethyltamoxifen]
RBA (IC50 ratio between tamoxifen and competitor) (estrogen receptor [1]): 150
Enhancement of estrogen receptor binding affinity (estrogen receptor [1]): 50 fold

CCN(CC)CCOc1ccc(/C(=C(/CCF)c2ccccc2)c2ccccc2)cc1 [IV (trans), N,N-diethyl-fluorotamoxifen]
Enhancement of estrogen receptor binding affinity (estrogen receptor [1]): two and a half times

CCN(CC)CCOc1ccc(/C(=C(\CCCBr)c2ccccc2)c2ccccc2)cc1 [cis-BTX]
MTD [2]: 50 mg/kg

fluorotamoxifen [trans^18 F-FTX]
Maximum dose tolerated [2]: 200 mg/kg

CCN(CC)CCOc1ccc(/C(=C(/CCCN)c2ccccc2)c2ccccc2)cc1 [TX-NH2 (trans), Amino Tamoxifen]
IC50 (estrogen receptor [5]): 300 µM
Ki (estrogen receptor [5]): 150 µM
RBA (relative binding affinity) (estrogen receptor [1]; tamoxifen = 100): 10

CC/C(=C(/c1ccccc1)c1ccc(OCCN2CC2)cc1)c1ccccc1 (single isomer, unassigned) [cis isomer of tamoxifen azizidine]
Decrease in estrogen receptor binding affinity (estrogen receptor [4]; versus trans isomer or native tamoxifen): 50 fold

CCN(CC)CCOc1ccc(C(=C(CCCF)c2ccccc2)c2ccccc2)cc1 [Compound VI, N,N-diethyl-fluoromethyltamoxifen]
Tumor cell inhibition (in words) (MCF7 cells): effective as inhibiting a breast tumor cell line

fluorotamoxifen [cis-^18 F-FTX]
Maximum dose tolerated [2]: 50 mg/kg

CCN(CC)CCOc1ccc(/C(=C(\CCCI)c2ccccc2)c2ccccc2)cc1 [cis-ITX, iodotamoxifen]
MTD [2]: 50 mg/kg

CC/C(=C(\c1ccc(C)cc1)c1ccc(OCCN(C)C)cc1)c1ccccc1 [Compound 4-methyl]
Estrogen receptor binding / detection potency (in words) (estrogen receptor [4]): approximately equal activity for estrogen receptor binding affinity
Anti-estrogenic / in vivo activity (in words) [3]: lower anti-estrogenic activity than tamoxifen

CC/C(=C(\c1ccc(I)cc1)c1ccc(OCCN(C)C)cc1)c1ccccc1 [Compound 4-iodo]
Estrogen receptor binding / detection potency (in words) (estrogen receptor [4]): greater potency than tamoxifen

CC/C(=C(\c1ccc(F)cc1)c1ccc(OCCN(C)C)cc1)c1ccccc1 [Compound 4-fluoro]
Estrogen receptor binding / detection potency (in words) (estrogen receptor [4]): approximately equal activity for estrogen receptor binding affinity
Anti-estrogenic / in vivo activity (in words) [3]: lower anti-estrogenic activity than tamoxifen

CCN(CC)CCOc1ccc(/C(=C(\CCCI)c2ccccc2)c2ccccc2)cc1 [X (cis), N,N-diethyl-iodomethyltamoxifen]
RBA (IC50 ratio between tamoxifen and competitor) (estrogen receptor [1]): 10
Enhancement of estrogen receptor binding affinity (estrogen receptor [1]): 10 fold
RBA (relative binding affinity) (estrogen receptor [1]; tamoxifen = 100): 1,000
Tumor cell inhibition (in words) (MCF7 cells): more potent than the trans isomers

CCN(CC)CCOc1ccc(C(=C(CCCI)c2ccccc2)c2ccccc2)cc1 [Compound X, N,N-diethyl-iodomethyltamoxifen]
Tumor cell inhibition (in words) (MCF7 cells): effective as inhibiting a breast tumor cell line

CCN(CC)CCOc1ccc(/C(=C(/CCC[131I])c2ccccc2)c2ccccc2)cc1 [^131 I-IMTX (trans)]
Uterus/muscle ratio ([6]; first value (3 h)): 11.0
Uterus/muscle ratio ([6]; second value (6 h)): 7.6
Uterus/muscle ratio ([6]; third value (24 h)): 3.6

CCN(CC)CCOc1ccc(/C(=C(/CCCCl)c2ccccc2)c2ccccc2)cc1 [(XII) ClM (trans), N,N-diethyl-chloromethyltamoxifen]
IC50 (estrogen receptor [1]; read-out: IC50 estrogen receptor binding, pig uterus, [3H]estradiol 5 nM): 0.4 µM

CCN(CC)CCOc1ccc(/C(=C(\CCF)c2ccccc2)c2ccccc2)cc1 (single isomer, unassigned) [IV (Cis), N,N-diethyl-fluorotamoxifen]
RBA (relative binding affinity) (estrogen receptor [1]; tamoxifen = 100): 100
Tumor cell inhibition (in words) (MCF7 cells): effective as inhibiting a breast tumor cell line
Tumor cell inhibition (in words) (MCF7 cells; listed as cis N,N-diethyl-fluoro): more potent than the trans isomers
